Among the data in ChEMBL document CHEMBL4385656, “Ciprofloxacin-1,2,3-triazole-isatin hybrids tethered via amide: Design, synthesis, and in vitro anti-mycobacterial activity evaluation” (Bioorg Med Chem Lett, 2019) are Ratio and MIC values, retold here.

SMILES strings stand for the structures. Converted amounts (≈) assume the structure as drawn. A value given as a limit tells only on which side of the number the result lay.

For the first experiment, the system named is Mycobacterium tuberculosis. In words: Potency index, ratio of MIC for ciprofloxacin to MIC for test compound for anti-mycobacterial activity against isoniazid and rifampicin-resistant Mycobacterium tuberculosis. The experiment is classed as functional.
As to `O=C1C(=O)N(Cc2cn(CC(=O)N3CCN(c4cc5c(cc4F)c(=O)c(C(=O)O)cn5C4CC4)CC3)nn2)c2ccccc21`, the Ratio entry is reported as “>=16”.

In a further experiment the test system is Mycobacterium tuberculosis. The experiment is described as follows: Anti-mycobacterial activity against isoniazid and rifampicin-resistant Mycobacterium tuberculosis. The experiment is classed as functional.
In turn, `CO[C@H]1/C=C/O[C@@]2(C)Oc3c(C)c(O)c4c(O)c(c(/C=N/N5CCN(C)CC5)c(O)c4c3C2=O)NC(=O)/C(C)=C\C=C\[C@H](C)[C@H](O)[C@@H](C)[C@@H](O)[C@@H](C)[C@H](OC(C)=O)[C@@H]1C` [RIFAMPIN] registered an MIC greater than 64 µg/mL.

Take `O=C1C(=O)N(Cc2cn(CC(=O)N3CCN(c4cc5c(cc4F)c(=O)c(C(=O)O)cn5C4CC4)CC3)nn2)c2ccccc21`: 0.12 µg/mL (≈ 0.2 µM) was the least that counted as inhibitory (MIC). Same read-out and setting: as for `CO/N=C1/C(=O)N(Cc2cn(CC(=O)N3CCN(c4cc5c(cc4F)c(=O)c(C(=O)O)cn5C4CC4)CC3)nn2)c2ccc(F)cc21`, the figure is 16 µg/mL (≈ 24.7 µM). On the same count and under the same terms, as for `CO/N=C1/C(=O)N(Cc2cn(CC(=O)N3CCN(c4cc5c(cc4F)c(=O)c(C(=O)O)cn5C4CC4)CC3)nn2)c2ccc(C)cc21`, the figure is 8 µg/mL (≈ 12.4 µM); as for `NNC(=O)c1ccncc1` [ISONIAZID], greater than 64 µg/mL. Consider `CCO/N=C1/C(=O)N(Cc2cn(CC(=O)N3CCN(c4cc5c(cc4F)c(=O)c(C(=O)O)cn5C4CC4)CC3)nn2)c2c(F)cccc21`, for which the minimum inhibitory concentration (MIC) was found to be 32 µg/mL (≈ 48.4 µM). For `CO/N=C1/C(=O)N(Cc2cn(CC(=O)N3CCN(c4cc5c(cc4F)c(=O)c(C(=O)O)cn5C4CC4)CC3)nn2)c2ccccc21`, it took 8 µg/mL (≈ 12.7 µM) to inhibit growth (MIC). On the same count and under the same terms, to `O=C1C(=O)N(Cc2cn(CC(=O)N3CCN(c4cc5c(cc4F)c(=O)c(C(=O)O)cn5C4CC4)CC3)nn2)c2ccc(F)cc21` belongs 1 µg/mL (≈ 1.62 µM); to `CCO/N=C1/C(=O)N(Cc2cn(CC(=O)N3CCN(c4cc5c(cc4F)c(=O)c(C(=O)O)cn5C4CC4)CC3)nn2)c2ccc(C)cc21`, 32 µg/mL (≈ 48.7 µM); to `CCO/N=C1/C(=O)N(Cc2cn(CC(=O)N3CCN(c4cc5c(cc4F)c(=O)c(C(=O)O)cn5C4CC4)CC3)nn2)c2ccccc21`, 16 µg/mL (≈ 24.9 µM). The compound `Cc1ccc2c(c1)C(=O)C(=O)N2Cc1cn(CC(=O)N2CCN(c3cc4c(cc3F)c(=O)c(C(=O)O)cn4C3CC3)CC2)nn1` returned a minimal inhibitory concentration (MIC) of 2 µg/mL (≈ 3.26 µM). The same measure, in the same setting: as for `CO/N=C1/C(=O)N(Cc2cn(CC(=O)N3CCN(c4cc5c(cc4F)c(=O)c(C(=O)O)cn5C4CC4)CC3)nn2)c2c(F)cccc21`, the figure is 32 µg/mL (≈ 49.5 µM). Still for that read-out and setting: as for `CCO/N=C1/C(=O)N(Cc2cn(CC(=O)N3CCN(c4cc5c(cc4F)c(=O)c(C(=O)O)cn5C4CC4)CC3)nn2)c2ccc(F)cc21`, the figure is 16 µg/mL (≈ 24.2 µM). Same read-out and setting: as for `O=C1C(=O)N(Cc2cn(CC(=O)N3CCN(c4cc5c(cc4F)c(=O)c(C(=O)O)cn5C4CC4)CC3)nn2)c2c(F)cccc21`, the figure is 2 µg/mL (≈ 3.24 µM); as for `O=C(O)c1cn(C2CC2)c2cc(N3CCNCC3)c(F)cc2c1=O` [CIPROFLOXACIN], 2 µg/mL (≈ 6.04 µM).

Another experiment relates to Mycobacterium tuberculosis. In words: Potency index, ratio of MIC for isoniazid to MIC for test compound for anti-mycobacterial activity against isoniazid and rifampicin-resistant Mycobacterium tuberculosis. The experiment is classed as functional.
For `O=C1C(=O)N(Cc2cn(CC(=O)N3CCN(c4cc5c(cc4F)c(=O)c(C(=O)O)cn5C4CC4)CC3)nn2)c2ccccc21`, the Ratio result is given as “>=16”.

For another experiment, the system named is Mycobacterium tuberculosis. In words: Potency index, ratio of MIC for rifampicin to MIC for test compound for anti-mycobacterial activity against isoniazid and rifampicin-resistant Mycobacterium tuberculosis. The experiment is classed as functional.
Take `O=C1C(=O)N(Cc2cn(CC(=O)N3CCN(c4cc5c(cc4F)c(=O)c(C(=O)O)cn5C4CC4)CC3)nn2)c2ccccc21`: the Ratio entry is on record as “>=16”.

A word on the MIC: it is the smallest concentration in the dilution series that meets the test's criterion for growth inhibition. Low values mean inhibition by little substance, high ones a need for much substance.
